Source: patent US6646006B2, “Enhancement of vascular function by modulation of endogenous nitric oxide production or activity” (The Board of Trustees of the Leland Stanford Junior …, priority 1993, dated 2003)
“Also recorded” adds a separate entry of the source.

Tests used:
[1] = system: hypercholesterolemic rabbits; test: Oral arginine in cholesterol-fed rabbits: biochemical and physiological measurements; format: in vivo, rabbit; conditions: 1% cholesterol diet + 2.25% L-arginine HCl in drinking water, vs Control or Chol diet
Text: (§1) Study design: (See, Cooke et al., 1992, supra) Male New Zealand white rabbits (n=49) were assigned to one of three treatment groups: 10 were fed with normal rabbit chow for ten weeks (Control); 19 received chow enriched with 1% cholesterol (Chol); and 20 received a 1% cholesterol diet supplemented with 2.25% L-arginine hydrochloride in the drinking water (Arg.). […] Subsequently the animals were sacrificed and the left main coronary artery and the thoracic aorta were harvested for studies of vascular reactivity and histomorphometry. In some animals, blood was collected for studies of platelet and monocyte reactivity.
Results: Biochemical and physiological measurements. […] Serum cholesterol measurements were elevated equally in both groups receiving the 1% cholesterol diet [50±6 vs. 1629±422 vs. 1852±356 mg/dl respectively for Control (=10), Chol (=13), and Arg (=14)].

[2] = system: hypercholesterolemic rabbits; test: Histomorphometry and lesion surface area planimetry of thoracic aorta and left main coronary artery; format: in vivo, rabbit
Text: as §1
By contrast, the intimal cross-sectional area (i.e. amount of atherosclerotic plaque) of vessels from hypercholesterolemic animals receiving L-arginine supplementation was reduced in comparison to those from animals receiving cholesterol diet alone. In the Arg animals the reduction in the intimal lesion was most pronounced in the ascending thoracic aorta and left main coronary artery.
Changes in lesion surface area: In a second series of studies, the extent of the thoracic aorta involved by lesions was examined. In hypercholesterolemic rabbits receiving vehicle (n=6) or L-arginine supplement (n=6), thoracic aortae (from left subclavian artery to diaphragm) were harvested after ten weeks of treatment, bisected longitudinally, and stained with oil-red O. Vessels were photographed and vessel and lesion surface area determined by planimetry. Approximately 40% of the total surface area was covered with plaque in thoracic aortae from hypercholesterolemic animals receiving vehicle, whereas in thoracic aortae from arginine-treated hypercholesterolemic animals, less than 10% of the surface area was covered with plaque (FIG. 1).

[3] = system: hypercholesterolemic rabbits; test: Balloon angioplasty of the iliac artery in hypercholesterolemic rabbits, oral arginine; format: in vivo, rabbit
Text: Methods. Twenty-eight New Zealand white rabbits were randomized into one of three dietary groups and received either normal rabbit chow, 0.5% cholesterol diet, or 0.5% cholesterol diet plus L-arginine hydrochloride (2.25% W/V) in the drinking water. After six weeks of dietary intervention, left iliac artery of each animal was subjected to a balloon angioplasty. Four weeks later, the iliac arteries were harvested for vascular reactivity studies and immunohistochemistry.

MCP-1 = test: Northern analysis of MCP-1 expression in thoracic aortae; format: in vivo, rabbit; conditions: two weeks; L-NA on normal chow, Arg on high cholesterol diet
Text: To investigate the role of endogenous NO in the regulation of MCP-1 in vivo, NZW rabbits were fed normal chow, normal chow plus nitro-L-arginine (L-NA) (to inhibit vascular NO synthesis), high cholesterol diet (Chol), or high cholesterol diet supplemented with L-arginine (Arg) (to enhance NO synthesis). After two weeks, thoracic aortae were harvested and total RNA was isolated. […] These studies indicate that the anti-atherogenic effect of NO may be mediated in part by its inhibition of MCP-1 expression. NO inhibits the generation of superoxide anion by the vascular cells and thereby turns off an oxidant-responsive transcriptional pathway (i.e. NFκB-mediated transcription) activating MCP-1 expression.

[4] = system: hypercholesterolemic rabbits; test: Local intraluminal arginine after iliac artery angioplasty in cholesterol-fed rabbits; format: in vivo, rabbit; conditions: local infusion 6 mM, four weeks
Text: FIG. 8 is a histogram showing the effect of local-intraluminal administration of arginine on restenosis. Hypercholesterolemic rabbits had balloon angioplasty of the iliac artery. Immediately thereafter some animals received an infusion of arginine directly into the vessel by means of a catheter designed to apply high local concentrations of arginine to the vessel. Two to four weeks later, vessels were removed from the animals, and examined microscopically. Thickening of the vessel wall (internal thickening or “restenosis”) was reduced in the animals treated with intraluminal infusion of arginine (ARG) in comparison to those treated with vehicle. (See Ex. 12)
To determine if intraluminal application of arginine to the vessel wall at the time of balloon angioplasty could inhibit lesion formation, the following study was performed. Rabbits (n=7) were fed a 1% cholesterol diet. After one week, angioplasty of the iliac arteries was performed. After angioplasty of one iliac artery, a local infusion catheter was used to expose the injured area to a high concentration of arginine (6 mM). The other iliac artery was subjected to balloon angioplasty, but not treated with a local infusion. After four weeks, the vessels were harvested, and segments of the arteries processed for histomorphometry.

human monocytes = test: Ex vivo binding of human monocytes to bEnd3 endothelial cells after oral L-arginine; format: in vivo
Experimental: The control subject population in this study included 12 normal volunteers, (10 males and 2 females), with an average age of 37±2 yrs. Normalcy was determined by a careful history, physical examination, and laboratory analysis to exclude individuals with hematologic, renal, or hepatic dysfunction or clinically evident atherosclerosis. There were 20 patients (10 males and 10 females) with hypercholesterolemia as defined by a total plasma cholesterol greater than 240 mg/dl and a LDL cholesterol level greater than 160 mg/dl. […] None of the subjects were taking diuretics, vasoactive medications, antiplatelet or hypolipidemic medications. This study was approved by the Stanford University Administrative Panel on Human Subjects in Medical Research and each subject gave written informed consent before entry into the study. Blood was drawn from each subject in the postabsorptive state.
We isolated human monocytes from citrated venous blood. The blood was centrifuged and the buffy coat removed and resuspended with HBSS. The suspension was then carefully layered onto a cushion of 1.068-d Histopaque, and centrifuged. After centrifugation, the monocytes were aspirated.
We used the transformed endothelial cell (EC) line, bEnd3 to examine monocyte-endothelial binding ex vivo. The bEnd3 cells express endothelial adhesion molecules and bind monocytes in a cytokine-inducible fashion with kinetics similar to those observed with human umbilical vein endothelium. Monocytes were added to the wells containing the endothelial monolayers to reach a final cell number of 3×10^6/ml. In some studies, monocytes were exposed in vitro for 30 minutes to sodium nitroprusside (an NO donor) prior to the binding assay.
The six-well plates were transferred to a rocking platform and rocked for 30 minutes at room temperature. After 30 minutes, the cell suspension was aspirated from each well and wells were then rinsed with binding buffer to remove nonadherent monocytes. Videomicroscopic counting of adherent cells was performed using a computer aided image analysis system.
To confirm this effect of L-arginine treatment and to control for any experimental bias, a double-blinded, placebo-controlled, randomized study was performed. Ten hypercholesterolemic subjects were randomized (1:2) to placebo or L-arginine treatment; 6 normocholesterolemic individuals were studied in parallel to control for variation over time in the binding assay. At baseline, the adhesion of monocytes from both hypercholesterolemic groups was increased in comparison to the normocholesterolemic individuals (p<0.001). After 2 weeks of L-arginine administration, there was an absolute reduction of 53% in monocyte binding (n=7, p<0.005, baseline vs 2 weeks) (FIG. 11). By contrast, there was no significant change in the adhesiveness of monocytes isolated from hypercholesterolemic individuals treated with placebo.

[5] = two weeks after discontinuation of L-arginine

## N=C(N)NCCC[C@H](N)C(=O)O [L-arginine]
[1]
  plasma arginine levels: twofold elevation
[2]; hypercholesterolemic animals receiving arginine
  atherosclerotic plaque in the left main coronary artery: essentially no atherosclerotic plaque developed
[2]; ten weeks, oil-red O, planimetry
  surface area of thoracic aorta covered with plaque: less than 10%
[2]; vs cholesterol diet alone
  intimal cross-sectional area (amount of atherosclerotic plaque): reduced
[3]; four weeks after balloon angioplasty
  intimal thickening in injured vessels: reduced
[3]; four weeks after balloon injury, ARG vs CHOL
  accumulation of macrophages in the lesion: substantially inhibited; also recorded: significantly reduced
[3]; iliac artery, hypercholesterolemic animals
  endothelium-derived NO activity (bioassay): partially restored
MCP-1
  expression of MCP-1 in aortae: decreased
[4]
  thickening of the vessel wall in arginine-treated vessels: significantly reduced
Human monocytes; after 2 weeks of arginine treatment
  adhesiveness of monocytes compared with normal subjects: no different from those of the normal subjects
Human monocytes; double-blinded placebo-controlled, baseline vs 2 weeks, n=7
  absolute reduction in monocyte binding: 53%
Human monocytes; open-label, 3 individuals, 2 weeks
  decrease in monocyte adhesiveness: 38%
Human monocytes; [5]
  increase in binding vs that after 2 weeks of L-arginine therapy: 30±9%
  increase in bound cells/hpf vs normocholesterolemic individuals: 34±9%
